The source made the active and inactive calls. The calls are words filed in the database; no cut-off is given here.
Experiments:
RAW264.7 [1] = experiment: Antiinflammatory activity in LPS-stimulated mouse RAW264.7 cells assessed as reduction in iNOS protein expression at 10 uM by immunoblot analysis relative to control; assay type: functional; parameters: scale not given: the % may be the effect or the level left
RAW264.7 [2] = experiment: Antiinflammatory activity in LPS-stimulated mouse RAW264.7 cells assessed as reduction in COX2 protein expression at 10 uM by immunoblot analysis; assay type: functional; parameters: scale not given: the % may be the effect or the level left
Salmonella enteritidis = experiment: Antibacterial activity against Salmonella enteritidis ATCC 13076 at 100 ug/disk; assay type: functional, organism-based; conditions: Salmonella enterica subsp. enterica serovar Enteritidis
Human betaherpesvirus 5 = experiment: Inhibition of HCMV endonuclease at 1 mg/mL

| Compound | Activity (RAW264.7 [1]) | Activity (RAW264.7 [2]) | Activity (Salmonella enteritidis) | Activity (Human betaherpesvirus 5) |
| --- | --- | --- | --- | --- |
| O=C(/C=C/c1ccc(O)c(O)c1)OCCc1ccccc1 [CAFFEIC ACID PHENETHYL ESTER] | 1.5% | 70.2% |  |  |
| C=C1C(=O)O[C@H]2C[C@H]1[C@]1(O)C/C(C)=C/CC/C(C)=C/CC[C@]2(COC(C)=O)O1 (relative stereo) [DURUMHEMIKETALOLIDE C] | 0% | 34.7% | inactive | inactive |
| C=C1C(=O)O[C@@H]2C[C@H]1[C@]1(O)C/C(C)=C/CC/C(C)=C/CC[C@@]2(CO)O1 (relative stereo) [DURUMHEMIKETALOLIDE A] | 11% | 66.7% | inactive | inactive |
| C=C1C(=O)O[C@H]2C[C@H]1[C@]1(O)C/C(C)=C/CC/C(C)=C/CC[C@@]2(COC(C)=O)O1 (relative stereo) [DURUMHEMIKETALOLIDE B] | 6.4% | inactive | inactive | inactive |

Source: ChEMBL document CHEMBL1151819, “Unprecedented hemiketal cembranolides with anti-inflammatory activity from the soft coral Lobophytum durum” (2009)
